Test system: Myzus persicae
Test: JA or MeJA seed treatment, tomato plants challenged with aphids
Assay type: in vivo
Conditions: tomato cv. Carousel, seed treatment 3.0 mM JA, challenged 10 weeks after sowing
Description: Tomato, pepper, maize and wheat seeds were treated with 3 mM JA or 1.5 mM JA solutions or with 3 mM methyl jasmonate (MeJA) or with deionised water containing 42.8 mM ethanol (control) by full submersion of up to 40 seeds in a Petri dish of solution wrapped in foil for a period of 24 hours at 4° C. in a fridge. A temperature of 4° C. was used both to prevent degradation of the jasmonic acid solutions and to prevent germination of the seeds. The seeds were then removed from the treatment solution and washed in 1 liter of deionised water for 5 minutes to remove the JA or MeJA coating the outside of the seeds. Tomato seeds were sown in rockwool blocks and grown on peat-based compost in glass houses at 12° C.-28° C. under artificial light on a 16 hour light and 8 hour dark cycle for 48, 56 or 70 days. Tomato plants were then challenged with Tetranychus urticae (two-spotted spider mite) which were allowed to feed for 9 days, Manduca sexta (tobacco hornworm) caterpillars which were allowed to feed for 4 days or Myzus persicae (aphid), which were allowed to feed for 10 or 12 days. In each case these organisms were restricted to the plant on which they had originally been placed. Pepper plants were challenged with Myzus persicae (aphid), which were allowed to feed for 2 weeks. Maize and wheat plants were challenged with Spodoptera […] caterpillars which were allowed to feed for 2 days (maize) or 3 days (wheat). The effect of Myzus persicae on plants was determined by counting the aphid population on each plant under a dissecting microscope at ×10 magnification. Seeds of a UK commercial F1 hybrid tomato variety (cv. Carousel) were treated with 3.0 mM jasmonic acid (JA) and 42.8 mM ethanol in deionised H2O for a period of 24 hours at 4° C. in the dark. […] Aphids were allowed to feed on the plants for twelve days and the aphid population was measured at intervals over this period. […]

## CC/C=C\C[C@H]1C(=O)CC[C@@H]1CC(=O)O [JA, jasmonic acid]
12 days feeding
  Aphid population compared with control plants: significant (p<0.05) reduction
Seed dried and stored at 4 C for two months before sowing, 10 days feeding
  Aphid population compared with control plants, treated seed stored before sowing: significant (p<0.05) reduction

Source: patent publication US8507756B2, “Plant protection” (Plant Bioscience Limited, priority 2007, dated 2013)
